This is an account of results in patent US20100248390A1, “COMPOSITIONS AND METHODS FOR IDENTIFYING LIGANDS OF ODORANT RECEPTORS” (DUKE UNIVERSITY, priority 2009, published 2010).

Read-outs that look alike come from different tables or passages of the source.

Common to all, as to assay: CRE-luciferase assay of odorant receptor activation (Dual-Glo, Hana3A cells, RTP1S), dose-response EC50
Holding throughout (format): cell-based

The target in experiment [1] is T1, human odorant receptors (ORs) (Homo sapiens, UniProt Q8WZ94).
T1 construct: OR open reading frames were amplified from genomic DNA; expressed in transfected cells; host or cells: Hana3A cells, co-transfected with RTP1S, CRE-luciferase and pRL-SV40
T1 sequence (Q8WZ94 1-311): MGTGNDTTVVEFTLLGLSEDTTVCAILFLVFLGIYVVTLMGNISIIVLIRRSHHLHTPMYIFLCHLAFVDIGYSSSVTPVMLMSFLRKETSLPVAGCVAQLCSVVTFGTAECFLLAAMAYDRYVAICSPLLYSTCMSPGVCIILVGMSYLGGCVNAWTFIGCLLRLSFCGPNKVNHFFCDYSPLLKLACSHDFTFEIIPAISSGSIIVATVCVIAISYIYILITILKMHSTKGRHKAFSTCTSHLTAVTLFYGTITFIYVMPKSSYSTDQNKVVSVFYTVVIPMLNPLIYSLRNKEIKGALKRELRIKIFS
The following applies: receptor OR5P3. The gist of the method: (§1)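 Hana3A cells were co-transfected with Rho-tagged OR, RTP1S, CRE-luciferase and pRL-SV40, then exposed to odorant in CD293 medium for 4 hrs at 37° C. Firefly luminescence was divided by Renilla and normalized as (LN−Lmin)/(Lmax−Lmin) per plate set. Each dose was tested at least three times, and EC50 came from sigmoidal fits.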

The target of experiment [2] is T2, human odorant receptors (ORs) (Homo sapiens, UniProt O76002).
T2 construct: OR open reading frames were amplified from genomic DNA; expressed in transfected cells; host or cells: Hana3A cells, co-transfected with RTP1S, CRE-luciferase and pRL-SV40
T2 sequence (O76002 1-312): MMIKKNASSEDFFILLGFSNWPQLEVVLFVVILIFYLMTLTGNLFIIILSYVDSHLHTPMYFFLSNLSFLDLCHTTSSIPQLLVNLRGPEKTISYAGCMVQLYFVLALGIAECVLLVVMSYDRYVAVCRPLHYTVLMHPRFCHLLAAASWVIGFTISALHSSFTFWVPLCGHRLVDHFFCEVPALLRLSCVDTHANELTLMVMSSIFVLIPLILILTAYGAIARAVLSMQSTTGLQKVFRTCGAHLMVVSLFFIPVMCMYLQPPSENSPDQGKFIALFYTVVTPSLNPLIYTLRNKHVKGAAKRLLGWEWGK
The gist of the method: as §1

The target of experiment [3] is T3, human odorant receptors (ORs) (Homo sapiens, UniProt O95371).
T3 construct: OR open reading frames were amplified from genomic DNA; expressed in transfected cells; host or cells: Hana3A cells, co-transfected with RTP1S, CRE-luciferase and pRL-SV40
T3 sequence (O95371 1-312): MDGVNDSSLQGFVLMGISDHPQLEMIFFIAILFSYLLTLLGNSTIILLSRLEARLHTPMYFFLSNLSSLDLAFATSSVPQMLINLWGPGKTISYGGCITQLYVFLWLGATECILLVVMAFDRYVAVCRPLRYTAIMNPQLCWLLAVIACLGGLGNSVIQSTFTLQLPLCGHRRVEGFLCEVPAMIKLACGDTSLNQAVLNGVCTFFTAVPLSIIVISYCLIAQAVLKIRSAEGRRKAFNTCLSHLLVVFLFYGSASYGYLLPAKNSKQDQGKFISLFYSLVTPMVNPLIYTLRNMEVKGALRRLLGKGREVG
The following applies: receptor OR2C1; read-out: log EC50 of odorant at OR2C1 (0 = no response) (converted). The gist of the method: as §1

Experiment [4] concerns the target T4, human odorant receptors (ORs) (Homo sapiens, UniProt Q8NG81).
T4 construct: OR open reading frames were amplified from genomic DNA; expressed in transfected cells; host or cells: Hana3A cells, co-transfected with RTP1S, CRE-luciferase and pRL-SV40
T4 sequence (Q8NG81 1-312): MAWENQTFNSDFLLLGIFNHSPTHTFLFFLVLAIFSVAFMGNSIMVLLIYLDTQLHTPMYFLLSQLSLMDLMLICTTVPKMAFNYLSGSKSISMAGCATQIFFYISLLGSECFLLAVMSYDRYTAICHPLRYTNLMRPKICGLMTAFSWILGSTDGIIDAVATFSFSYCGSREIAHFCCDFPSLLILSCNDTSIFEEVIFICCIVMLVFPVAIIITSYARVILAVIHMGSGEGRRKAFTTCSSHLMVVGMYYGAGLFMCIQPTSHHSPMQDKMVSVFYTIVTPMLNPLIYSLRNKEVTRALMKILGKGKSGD
The following applies: receptor OR2M7. The gist of the method: as §1

Where [5] appears, read: read-out: log EC50 (Table 4 value), OR5P3 (converted).

Broadly, the EC50 is the midpoint of the concentration-response curve. For the compound `CC(=O)c1ccccc1` [Acetophenone], the EC50 in experiment [1] (setting [5]) was 126 µM.

As to `CCCCCCCCCCO` [1-Decanol], the midpoint of the response in experiment [2], the EC50, lay at 384 µM.

Regarding `CCCCCCCCS` [Octanethiol], the EC50 in experiment [3] is 88.9 µM.

As to `CCCCCCCO` [1-Heptanol], the EC50 in experiment [2] (receptor OR2J2, 0 = no response, read-out: log EC50, OR2J2 (converted)) was 536 µM; in experiment [1] (0 = no response, read-out: log EC50, OR5P3 (converted)) it was 1090 µM.

As for `C=C(C)C1CC=C(C)C(=O)C1` (single isomer, unassigned; (-)) [(−)-Carvone], the “log EC50, OR5P3” value in experiment [1] (0 = no response) is reported as −4.645.

Consider `O=c1ccc2ccccc2o1` [Coumarin], for which the EC50 was 274 µM in experiment [2] (receptor OR2J2, read-out: log EC50 (Table 4 value), OR2J2 (converted)) and 5.62 µM in experiment [1] (setting [5]).

For the compound `C=C(C)[C@H]1CC=C(C)C(=O)C1` [(+)-Carvone], the “log EC50, OR5P3” value in experiment [1] (0 = no response) is −5.173.

For the compound `CC(C)=CCCC(C)CCO` (single isomer, unassigned; (-)) [(−)-b-C ? inedol], the EC50 in experiment [4] (0 = no response, read-out: log EC50, OR2M7 (converted)) was 140 µM.

Consider `CCCCCCCCCS` [Nonanethiol], for which, in experiment [3], the EC50 is 128 µM.

Consider `CC(C)=CCC/C(C)=C/CO` [Getaniol], for which the EC50 in experiment [4] (read-out: log EC50 (Table 4 value), OR2M7 (converted)) is 627 µM.
